Results reported in patent US20160002248A1, “GLS1 INHIBITORS FOR TREATING DISEASE” (Board of Regents, The University of Texas System, priority 2014, published 2016).

Legend:
[1] = target: T1, purified recombinant human GAC (GLS1) (Homo sapiens, UniProt O94925); test: GLS1 Enzymatic Activity Assay (dual-coupled enzymatic assay); assay type: biochemical
T1 sequence (O94925 55-598 isoform O94925-3 limits assumed): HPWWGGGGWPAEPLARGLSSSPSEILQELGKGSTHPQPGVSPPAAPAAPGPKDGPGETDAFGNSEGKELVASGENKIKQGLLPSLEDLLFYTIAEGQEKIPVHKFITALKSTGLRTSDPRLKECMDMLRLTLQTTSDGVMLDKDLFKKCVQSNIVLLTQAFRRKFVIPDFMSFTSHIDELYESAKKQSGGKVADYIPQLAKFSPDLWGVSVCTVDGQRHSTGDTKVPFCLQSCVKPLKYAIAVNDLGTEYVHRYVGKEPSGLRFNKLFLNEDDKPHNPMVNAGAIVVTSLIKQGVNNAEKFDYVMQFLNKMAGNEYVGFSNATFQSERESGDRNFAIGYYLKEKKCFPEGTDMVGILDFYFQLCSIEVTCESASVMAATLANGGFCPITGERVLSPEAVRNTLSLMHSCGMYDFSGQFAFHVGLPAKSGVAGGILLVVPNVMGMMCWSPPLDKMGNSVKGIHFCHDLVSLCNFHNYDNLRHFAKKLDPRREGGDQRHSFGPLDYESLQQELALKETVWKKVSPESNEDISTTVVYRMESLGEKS
Method in brief: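 Recombinant human GAC (2 nM) preincubated with 50 mM potassium phosphate, then inhibitor (10 min each, RT); 1 mM glutamine, pH 7.4 Hepes buffer, 1% DMSO. Glutamate coupled via glutamate oxidase/HRP to resorufin (Ex 530/Em 590), kinetic or 20-min endpoint; IC50 by four-parameter logistic fit.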

[2] = system: A549 cells; test: Proliferation Assay (A549 cell viability, Cell Titer Fluor); assay type: cell-based; conditions: Homo sapiens, 72 hours
Method in brief: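 Compound was added to A549 cells (1000/well, pre-grown 24 h in RPMI 1640 plus 10% dialyzed FBS) at 0.5% DMSO and left 72 h under 37 °C, 5% CO2, ambient O2. Live-cell fluorescence (Cell Titer Fluor) gave the EC50.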

IC50 [1] [nM]	EC50 [2] [nM]	SMILES
< 100	< 100	CC(C)(C)OC(=O)NCc1cccc(CC(=O)Nc2nnc(CCCCc3cc4cc(Cc5ccccc5)[nH]c4nn3)s2)c1 [Example 59, tert-butyl N-{[3-({[5-(4-{6-benzyl-7H-pyrrolo[2,3-c]pyridazin-3-yl}butyl)-1,3,4-thiadiazol-2-yl]carbamoyl}methyl)phenyl]methyl}carbamate]
< 100	500 to 5000	CC(=O)Nc1cccc(-c2c(C3CC3)[nH]c3nnc(CCCCn4cc(C(=O)NCc5ccc(C(C)(C)O)nc5)nn4)cc23)c1 [Example 152, 1-{4-[6-cyclopropyl-5-(3-acetamidophenyl)-7H-pyrrolo[2,3-c]pyridazin-3-yl]butyl}-N-{[6-(2-hydroxypropan-2-yl)pyridin-3-yl]methyl}-1H-1,2,3-triazole-4-carboxamide]
100 to 500	500 to 5000	O=C(NCC1COC1)c1nnc(CCCCc2cc3cc(Cc4ccccc4)[nH]c3nn2)s1 [Example 69, 5-(4-{6-benzyl-7H-pyrrolo[2,3-c]pyridazin-3-yl}butyl)-N-(oxetan-3-ylmethyl)-1,3,4-thiadiazole-2-carboxamide]
< 100	< 100	O=C(NCc1ccccn1)c1cn(CCCCc2cc3cc(CC4CCCCC4)[nH]c3nn2)nn1 [Example 85, 1-(4-(6-(cyclohexylmethyl)-7H-pyrrolo[2,3-c]pyridazin-3-yl)butyl)-N-(pyridin-2-ylmethyl)-1H-1,2,3-triazole-4-carboxamide]
< 100	500 to 5000	Cc1ccc(CNC(=O)c2cn(CCCCc3cc4c(-c5cccc(CNS(C)(=O)=O)c5)c(C5CC5)[nH]c4nn3)nn2)cn1 [Example 159, 1-(4-{6-cyclopropyl-5-[3-(methanesulfonamidomethyl)phenyl]-7H-pyrrolo[2,3-c]pyridazin-3-yl}butyl)-N-[(6-methylpyridin-3-yl)methyl]-1H-1,2,3-triazole-4-carboxamide]
500 to 5000	500 to 5000	O=C(NCCO)c1nnc(CCCCc2cc3cc(Cc4ccccc4)[nH]c3nn2)s1 [Example 68, 5-(4-{6-benzyl-7H-pyrrolo[2,3-c]pyridazin-3-yl}butyl)-N-(2-hydroxyethyl)-1,3,4-thiadiazole-2-carboxamide]
< 100	500 to 5000	O=C(NCc1cc(OC(F)(F)F)ccc1F)c1cn(CCCCc2cc3cc(C4CNC4)[nH]c3nn2)nn1 [Example 118, 1-{4-[6-(azetidin-3-yl)-7H-pyrrolo[2,3-c]pyridazin-3-yl]butyl}-N-{[2-fluoro-5-(trifluoromethoxy)phenyl]methyl}-1H-1,2,3-triazole-4-carboxamide]
< 100	100 to 500	CC(C)(O)c1ccc(CNC(=O)c2cn(CCCCc3cc4c(-c5cccc(C(F)(F)F)c5)c(C5CC5)[nH]c4nn3)nn2)cn1 [Example 166, 1-(4-{6-cyclopropyl-5-[3-(trifluoromethyl)phenyl]-7H-pyrrolo[2,3-c]pyridazin-3-yl}butyl)-N-{[6-(2-hydroxypropan-2-yl)pyridin-3-yl]methyl}-1H-1,2,3-triazole-4-carboxamide]
< 100	< 100	O=C(NCc1cncc(C(F)(F)F)c1)c1cn(CCCCc2cc3c(-c4ccc(F)cc4F)c(C4CC4)[nH]c3nn2)nn1 [Example 221, 1-{4-[6-cyclopropyl-5-(2,4-difluorophenyl)-7H-pyrrolo[2,3-c]pyridazin-3-yl]butyl}-N-{[5-(trifluoromethyl)pyridin-3-yl]methyl}-1H-1,2,3-triazole-4-carboxamide]
< 100	100 to 500	O=C(NCc1ccc(C(F)(F)F)cn1)c1cn(CCCCc2cc3cc(-c4ccccc4F)[nH]c3nn2)nn1 [Example 193, 1-(4-[6-(2-fluorophenyl)-7H-pyrrolo[2,3-c]pyridazin-3-yl]butyl}-N-{[5-(trifluoromethyl)pyridin-2-yl]methyl}-1H-1,2,3-triazole-4-carboxamide]
< 100	100 to 500	Cc1ccc(CNC(=O)c2cn(CCCCc3cc4cc(Cc5ccccc5)[nH]c4nn3)nn2)cn1 [Example 92, 1-(4-{6-benzyl-7H-pyrrolo[2,3-c]pyridazin-3-yl}butyl)-N-[(6-methylpyridin-3-yl)methyl]-1H-1,2,3-triazole-4-carboxamide]
< 100	100 to 500	O=C(NCc1ccc(C(F)(F)F)cn1)c1cn(CCCCc2cc3c(C4CC4)c(C4CC4)[nH]c3nn2)nn1 [Example 208, 1-(4-{5,6-dicyclopropyl-7H-pyrrolo[2,3-c]pyridazin-3-yl}butyl)-N-{[5-(trifluoromethyl)pyridin-2-yl]methyl}-1H-1,2,3-triazole-4-carboxamide]
< 100	100 to 500	O=C(NCc1ccccn1)c1cn(CCCCc2cc3c(-c4ccccc4)c(C4CC4)[nH]c3nn2)nn1 [Example 108, 1-(4-{6-cyclopropyl-5-phenyl-7H-pyrrolo[2,3-c]pyridazin-3-yl}butyl)-N-(pyridin-2-ylmethyl)-1H-1,2,3-triazole-4-carboxamide]
< 100	500 to 5000	CC(=O)N1CC(c2cc3cc(CCCCn4cc(C(=O)NCc5cc(OC(F)(F)F)ccc5F)nn4)nnc3[nH]2)C1 [Example 119, 1-{4-[6-(1-acetylazetidin-3-yl)-7H-pyrrolo[2,3-c]pyridazin-3-yl]butyl}-N-{[2-fluoro-5-(trifluoromethoxy)phenyl]methyl}-1H-1,2,3-triazole-4-carboxamide]
< 100	100 to 500	Cc1ccc(CNC(=O)c2cn(CCCCc3cc4c(Br)c(C5CC5)[nH]c4nn3)nn2)cn1 [Example 18, 1-(4-(5-Bromo-6-cyclopropyl-7H-pyrrolo[2,3-c]pyridazin-3-yl)butyl)-N-((6-methylpyridin-3-yl)methyl)-1H-1,2,3-triazole-4-carboxamide 2,2,2-trifluoroacetate]
500 to 5000	> 5000	Cn1ccnc1CNC(=O)c1cn(CCCCc2cc3cc(C4CC4)[nH]c3nn2)nn1 [Example 54, 1-(4-{6-cyclopropyl-7H-pyrrolo[2,3-c]pyridazin-3-yl}butyl)-N-[(1-methyl-1H-imidazol-2-yl)methyl]-1H-1,2,3-triazole-4-carboxamide]
100 to 500	500 to 5000	O=C(NCc1cc(OC(F)(F)F)ccc1F)c1cn(CCCCc2cc3cc(C4CCNCC4)[nH]c3nn2)nn1 [Example 155, N-{[2-fluoro-5-(trifluoromethoxy)phenyl]methyl)-1-{4-[6-(piperidin-4-yl)-7H-pyrrolo[2,3-c]pyridazin-3-yl]butyl)-1H-1,2,3-triazole-4-carboxamide]
100 to 500	500 to 5000	Cc1ccc(CNC(=O)c2cn(CCCCc3cc4cc(C5CC5)[nH]c4nn3)nn2)nc1 [Example 56, 1-(4-{6-cyclopropyl-7H-pyrrolo[2,3-c]pyridazin-3-yl}butyl)-N-[(5-methylpyridin-2-yl)methyl]-1H-1,2,3-triazole-4-carboxamide]
< 100	100 to 500	Cc1ccc(CNC(=O)c2cn(CCCCc3cc4cc(-c5ccccc5C(F)(F)F)[nH]c4nn3)nn2)cn1 [Example 215, N-[(6-methylpyridin-3-yl)methyl]-1-(4-{6-[2-(trifluoromethyl)phenyl]-7H-pyrrolo[2,3-c]pyridazin-3-yl}butyl)-1H-1,2,3-triazole-4-carboxamide]
< 100	100 to 500	CC(C)Cc1c(C2CC2)[nH]c2nnc(CCCCn3cc(C(=O)NCc4ccccn4)nn3)cc12 [Example 110, 1-{4-[6-cyclopropyl-5-(2-methylpropyl)-7H-pyrrolo[2,3-c]pyridazin-3-yl]butyl}-N-(pyridin-2-ylmethyl)-1H-1,2,3-triazole-4-carboxamide]
< 100	100 to 500	O=C(NCc1ccccn1)c1cn(CCCCc2cc3c(-c4ccccc4F)c(C4CC4)[nH]c3nn2)nn1 [Example 120, 1-{4-[6-cyclopropyl-5-(2-fluorophenyl)-7H-pyrrolo[2,3-c]pyridazin-3-yl]butyl}-N-(pyridin-2-ylmethyl)-1H-1,2,3-triazole-4-carboxamide]
< 100	< 100	Cc1ccc(CNC(=O)c2cn(CCCCc3cc4c(-c5ccc(F)cc5F)c(C5CC5)[nH]c4nn3)nn2)cn1 [Example 147, 1-{4-[6-cyclopropyl-5-(2,4-difluorophenyl)-7H-pyrrolo[2,3-c]pyridazin-3-yl]butyl}-N-[(6-methylpyridin-3-yl)methyl]-1H-1,2,3-triazole-4-carboxamide]
< 100	< 100	CC(C)(F)C(=O)N1CC(c2cc3cc(CCCCn4cc(C(=O)NCc5cc(OC(F)(F)F)ccc5F)nn4)nnc3[nH]2)C1 [Example 227, 1-(4-{6-[1-(2-fluoro-2-methylpropanoyl)azetidin-3-yl]-7H-pyrrolo[2,3-c]pyridazin-3-yl}butyl)-N-{[2-fluoro-5-(trifluoromethoxy)phenyl]methyl}-1H-1,2,3-triazole-4-carboxamide]
